Data on 32 compounds can be found in US20250179078A1, “INHIBITORS OF NLRP3” (PTC THERAPEUTICS, INC., priority 2022, published 2025).

Each structure is given as a SMILES string.

This assay deals with T1, NLRP3 (Homo sapiens, UniProt Q96P20).
T1 construct: host or cells: THP-1 cells differentiated with PMA
Put plainly: IL-1β Secretion Assay (NLRP3-dependent IL1β secretion in THP1 cells). The format is cell-based. The conditions noted are these: PMA-differentiated THP-1 cells; compounds incubated 20 h; 2.5 μM Nigericin 3 h; HTRF IL-1β readout; read-out: IC50 IL-1β Inhibition. The gist of the method: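 IL-1β in conditioned media, measured by HTRF after 3 h 2.5 μM nigericin stimulation, gave % inhibition fitted logistically for IC50. Before that, PMA-differentiated (100 ng/mL, 24 h) THP-1 cells were preincubated 20 h with 7 compound concentrations (3-fold serial, DMSO 1:200).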
A general note: TR-FRET usually uses a lanthanide donor and a delayed reading to cut background.

T1 sequence (Q96P20 whole entry): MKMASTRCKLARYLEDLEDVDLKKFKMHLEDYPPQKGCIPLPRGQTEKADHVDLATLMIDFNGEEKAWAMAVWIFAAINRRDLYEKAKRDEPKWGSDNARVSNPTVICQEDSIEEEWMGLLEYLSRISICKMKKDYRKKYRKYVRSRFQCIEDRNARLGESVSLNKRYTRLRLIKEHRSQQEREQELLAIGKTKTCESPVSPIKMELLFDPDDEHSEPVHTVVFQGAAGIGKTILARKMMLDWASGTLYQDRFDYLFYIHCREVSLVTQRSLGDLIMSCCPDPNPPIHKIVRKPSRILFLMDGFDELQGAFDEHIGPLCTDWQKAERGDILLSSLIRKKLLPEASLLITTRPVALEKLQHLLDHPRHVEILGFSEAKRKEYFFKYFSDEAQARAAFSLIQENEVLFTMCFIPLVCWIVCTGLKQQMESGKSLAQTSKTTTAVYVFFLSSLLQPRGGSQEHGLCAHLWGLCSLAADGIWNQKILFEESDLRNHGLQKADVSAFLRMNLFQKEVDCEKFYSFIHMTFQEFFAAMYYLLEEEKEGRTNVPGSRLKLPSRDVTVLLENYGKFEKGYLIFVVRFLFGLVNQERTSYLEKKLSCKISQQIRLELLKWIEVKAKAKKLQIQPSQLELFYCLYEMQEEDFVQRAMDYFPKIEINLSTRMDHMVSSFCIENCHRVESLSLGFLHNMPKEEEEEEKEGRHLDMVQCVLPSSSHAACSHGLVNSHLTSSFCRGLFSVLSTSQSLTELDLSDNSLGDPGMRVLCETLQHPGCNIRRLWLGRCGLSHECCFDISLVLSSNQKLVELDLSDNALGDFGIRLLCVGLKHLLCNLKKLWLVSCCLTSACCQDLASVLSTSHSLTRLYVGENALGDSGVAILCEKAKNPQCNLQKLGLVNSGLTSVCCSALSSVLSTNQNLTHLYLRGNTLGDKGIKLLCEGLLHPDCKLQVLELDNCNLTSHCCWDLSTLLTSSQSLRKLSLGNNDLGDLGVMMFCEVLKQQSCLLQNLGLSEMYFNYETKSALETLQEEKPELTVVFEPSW

In the case of `CN1CCC[C@@H](Nc2nnc(-c3ccc(C4CC4)cc3OC(F)(F)F)c3cccn23)C1` [Compound 37, 1-[4-cyclopropyl-2-(trifluoromethoxy)phenyl]-N-[(3R)-1-methylpiperidin-3-yl]pyrrolo[1,2-d][1,2,4]triazin-4-amine], the IC50 – broadly, the concentration that inhibits the measured activity by half – is less than 1 nM.
Consider `COc1ccc(-c2nnc(NC(C)c3cccc(O)c3)n3ccc(F)c23)c(C(F)(F)F)c1` (centres unmarked) [Compound 149, 3-[1-({8-fluoro-1-[4-methoxy-2-(trifluoromethyl)phenyl]pyrrolo[1,2-d][1,2,4]triazin-4-yl}amino)ethyl]phenol], for which the IC50 is 1 to 10 nM.
Then `COc1ccc(-c2nnc(NC3CCNC3=O)n3cccc23)c(CC(F)(F)F)c1` (centres unmarked) [Compound 139, 3-({1-[4-methoxy-2-(2,2,2-trifluoroethyl)phenyl]pyrrolo[1,2-d][1,2,4]triazin-4-yl}amino)pyrrolidin-2-one], with 1 to 10 nM; and `C[C@]1(O)C[C@@H](Nc2nnc(-c3ccc(C4CC4)cc3CC(F)(F)F)c3cncn23)C1` [Compound 348, (1s,3s)-3-({1-[4-cyclopropyl-2-(2,2,2-trifluoroethyl)phenyl]imidazo[1,5-d][1,2,4]triazin-4-yl}amino)-1-methylcyclobutan-1-ol], with less than 1 nM; and `CCc1ccc(-c2nnc(N[C@@H]3CCCN(C)C3)n3cccc23)c(OC(F)(F)F)c1` [Compound 42, 1-[4-ethyl-2-(trifluoromethoxy)phenyl]-N-[(3R)-1-methylpiperidin-3-yl]pyrrolo[1,2-d][1,2,4]triazin-4-amine], with 1 to 10 nM.
For the compound `Cc1ccc(-c2nnc(NC3CCNC3=O)n3cncc23)c(CC(F)(F)F)c1` (centres unmarked) [Compound 288, 3-({1-[4-methyl-2-(2,2,2-trifluoroethyl)phenyl]imidazo[1,5-d][1,2,4]triazin-4-yl}amino)pyrrolidin-2-one], the half-maximal inhibitory concentration (IC50) is 1 to 10 nM.
Then `C[C@]1(O)C[C@@H](Nc2nnc(-c3ccc(Br)cc3OC(F)F)c3cncn23)C1` [Compound 199, (1s,3s)-3-({1-[4-bromo-2-(difluoromethoxy)phenyl]imidazo[1,5-d][1,2,4]triazin-4-yl}amino)-1-methylcyclobutan-1-ol], with 1 to 10 nM.
As for `CCN1CCC[C@@H](Nc2nnc(-c3ccc(OC)cc3OC3CC3)c3cccn23)C1` [Compound 182, 1-[2-(cyclopropyloxy)-4-methoxyphenyl]-N-[(3R)-1-ethylpiperidin-3-yl]pyrrolo[1,2-d][1,2,4]triazin-4-amine], the IC50 was 1 to 10 nM.
`O[C@@H]1CCCC[C@H]1Nc1nnc(-c2ccc(C(F)(F)F)cc2C(F)(F)F)c2cncn12` [Compound 243, (1R,2R)-2-({1-[2,4-bis(trifluoromethyl)phenyl]imidazo[1,5-d][1,2,4]triazin-4-yl}amino)cyclohexan-1-ol]: the IC50 is less than 1 nM.
Then `Cc1ccc(-c2nnc(N[C@H]3CCCC[C@@H]3O)n3cccc23)c(OC(F)F)c1` [Compound 80, (1S,2S)-2-({1-[2-(difluoromethoxy)-4-methylphenyl]pyrrolo[1,2-d][1,2,4]triazin-4-yl}amino)cyclohexan-1-ol], with 10 to 100 nM.
Take `CC(Nc1nnc(-c2ccc(OC(F)F)cc2OC(F)(F)F)c2cncn12)c1cccc(O)c1` (centres unmarked) [Compound 259]: the IC50 is less than 1 nM.
For `OCCN1CCC[C@@H](Nc2nnc(-c3ccc(C(F)(F)F)cc3OC(F)(F)F)c3cccn23)C1` [Compound 120, 2-[(3R)-3-({1-[2-(trifluoromethoxy)-4-(trifluoromethyl)phenyl]pyrrolo[1,2-d][1,2,4]triazin-4-yl}amino)piperidin-1-yl]ethan-1-ol], the IC50 is less than 1 nM.
Then `CCN1C[C@H](F)C[C@@H](Nc2nnc(-c3ccc(C(F)(F)F)cc3C(F)(F)F)c3c(F)ccn23)C1` [Compound 32, 1-[2,4-bis(trifluoromethyl)phenyl]-N-[(3R,5R)-1-ethyl-5-fluoropiperidin-3-yl]-8-fluoropyrrolo[1,2-d][1,2,4]triazin-4-amine], with 1 to 10 nM; and `O=C1NCCC1Nc1nnc(-c2ccc(C(F)(F)F)cc2C(F)(F)F)c2ccnn12` (centres unmarked) [Compound 396, 3-({4-[2,4-bis(trifluoromethyl)phenyl]pyrazolo[1,5-d][1,2,4]triazin-7-yl}amino)pyrrolidin-2-one], with 10 to 100 nM; and `COc1ccc(-c2nnc(N[C@@H]3CCOC[C@H]3O)n3nc(C)cc23)c(CC(F)(F)F)c1` [Compound 384, (3S,4R)-4-({4-[4-methoxy-2-(2,2,2-trifluoroethyl)phenyl]-2-methylpyrazolo[1,5-d][1,2,4]triazin-7-yl}amino)oxan-3-ol], with 1 to 10 nM.
Consider `O[C@H]1CCC[C@@H](Nc2nnc(-c3ccc(C(F)(F)F)cc3C(F)(F)F)c3cncn23)C1` [Compound 215, (1S,3R)-3-({1-[2,4-bis(trifluoromethyl)phenyl]imidazo[1,5-d][1,2,4]triazin-4-yl}amino)cyclohexan-1-ol], for which the IC50 was in the range of 10 to 100 nM.
Consider `Cc1cc2c(-c3ccc(C(F)(F)F)cc3C(F)(F)F)nnc(N[C@H]3CCCC[C@@H]3O)n2c1` [Compound 132, (1S,2S)-2-({1-[2,4-bis(trifluoromethyl)phenyl]-7-methylpyrrolo[1,2-d][1,2,4]triazin-4-yl}amino)cyclohexan-1-ol], for which the IC50 lay within 10 to 100 nM.
Next, `COc1ccc(-c2nnc(N[C@H]3C[C@@](C)(O)C3)n3cccc23)c(Cl)c1` [Compound 72, (1s,3s)-3-{[1-(2-chloro-4-methoxyphenyl)pyrrolo[1,2-d][1,2,4]triazin-4-yl]amino}-1-methylcyclobutan-1-ol]: 10 to 100 nM; `C[C@]1(CO)C[C@@H](Nc2nnc(-c3ccc(C(F)(F)F)cc3CC(F)(F)F)c3cncn23)C1` [Compound 343, [(1s,3s)-1-methyl-3-({1-[2-(2,2,2-trifluoroethyl)-4-(trifluoromethyl)phenyl]imidazo[1,5-d][1,2,4]triazin-4-yl}amino)cyclobutyl]methanol]: less than 1 nM; `COc1ccc(-c2nnc(N[C@H]3C[C@@](C)(O)C3)n3cncc23)c(C(F)(F)F)c1` [Compound 214, (1s,3s)-3-({1-[4-methoxy-2-(trifluoromethyl)phenyl]imidazo[1,5-d][1,2,4]triazin-4-yl}amino)-1-methylcyclobutan-1-ol]: 1 to 10 nM.
For `OCCN1CCC[C@@H](Nc2nnc(-c3ccc(C(F)(F)F)cc3CC(F)(F)F)c3cncn23)C1` [Compound 301], the IC50 is less than 1 nM.
Next, `O[C@@H]1COCC[C@H]1Nc1nnc(-c2ccc(C(F)(F)F)cc2OC(F)(F)F)c2cncn12` [Compound 322, (3S,4R)-4-({1-[2-(trifluoromethoxy)-4-(trifluoromethyl)phenyl]imidazo[1,5-d][1,2,4]triazin-4-yl}amino)oxan-3-ol]: 10 to 100 nM; `Cc1ccc(-c2nnc(N[C@@H]3CCCN(CCO)C3)n3cncc23)c(OC(F)(F)F)c1` [Compound 355, 2-[(3R)-3-({1-[4-methyl-2-(trifluoromethoxy)phenyl]imidazo[1,5-d][1,2,4]triazin-4-yl}amino)piperidin-1-yl]ethan-1-ol]: 10 to 100 nM; `COc1ccc(-c2nnc(N[C@@H]3CCCN(CCO)C3)n3cncc23)c(OC(F)(F)F)c1` [Compound 211, 2-[(3R)-3-({1-[4-methoxy-2-(trifluoromethoxy)phenyl]imidazo[1,5-d][1,2,4]triazin-4-yl}amino)piperidin-1-yl]ethan-1-ol]: less than 1 nM.
Then `Cc1ccc(-c2nnc(N[C@@H]3CCCN(C)C3)n3cc(C)cc23)c(C(F)F)c1` [Compound 23, 1-[2-(difluoromethyl)-4-methylphenyl]-7-methyl-N-[(3R)-1-methylpiperidin-3-yl]pyrrolo[1,2-d][1,2,4]triazin-4-amine], with 1 to 10 nM.
`CCN1CCC[C@@H](Nc2nnc(-c3ccc(C#N)cc3OC(F)F)c3cc(C)nn23)C1` [Compound 378, 3-(difluoromethoxy)-4-(7-{[(3R)-1-ethylpiperidin-3-yl]amino}-2-methylpyrazolo[1,5-d][1,2,4]triazin-4-yl)benzonitrile]: the IC50 lay in the range of 1 to 10 nM.
On to `CCN1CCC[C@@H](Nc2nnc(-c3ccc(C)cc3S(C)(=O)=O)c3cc(C)nn23)C1` [Compound 368, N-[(3R)-1-ethylpiperidin-3-yl]-4-[2-(methanesulfonyl)-4-methylphenyl]-2-methylpyrazolo[1,5-d][1,2,4]triazin-7-amine], for which the IC50 was in the range of 10 to 100 nM.
Turning to `CN1CCC[C@@H](Nc2nnc(-c3ccc(C(F)(F)F)cc3C(F)(F)F)c3cncn23)C1` [Compound 217, 1-[2,4-bis(trifluoromethyl)phenyl]-N-[(3R)-1-methylpiperidin-3-yl]imidazo[1,5-d][1,2,4]triazin-4-amine], the IC50 is less than 1 nM.
With `COc1ccc(-c2nnc(N[C@H]3CCCC[C@@H]3O)n3cc(C)cc23)c(OC(F)(F)F)c1` [Compound 133, (1S,2S)-2-({1-[4-methoxy-2-(trifluoromethoxy)phenyl]-7-methylpyrrolo[1,2-d][1,2,4]triazin-4-yl}amino)cyclohexan-1-ol], the IC50 was in the range of 10 to 100 nM.
Regarding `CN1CC[C@@H](O)[C@@H](Nc2nnc(-c3ccc(OC(F)F)cc3OC(F)(F)F)c3cccn23)C1` [Compound 170, (3S,4R)-3-({1-[4-(difluoromethoxy)-2-(trifluoromethoxy)phenyl]pyrrolo[1,2-d][1,2,4]triazin-4-yl}amino)-1-methylpiperidin-4-ol], the IC50 is less than 1 nM.
As for `FC(F)Oc1ccc(-c2nnc(N[C@@H]3CCCOC3)n3cccc23)c(OC(F)(F)F)c1` [Compound 152, 1-[4-(difluoromethoxy)-2-(trifluoromethoxy)phenyl]-N-[(3R)-oxan-3-yl]pyrrolo[1,2-d][1,2,4]triazin-4-amine], the IC50 is 1 to 10 nM.
Next, `CN1CCC[C@@H](Nc2nnc(-c3ccc(C(F)(F)F)cc3CC(F)(F)F)c3cncn23)C1` [Compound 2, N-[(3R)-1-methylpiperidin-3-yl]-1-[2-(2,2,2-trifluoroethyl)-4-(trifluoromethyl)phenyl]imidazo[1,5-d][1,2,4]triazin-4-amine]: less than 1 nM.
